Laboratory results taken from US9174952B2, “Substituted 3-thiazoloamino-propionic acid derivatives and their use as pharmaceuticals” (SANOFI, priority 2011, dated 2015).

Molecular target: T1, Recombinant human cathepsin A (Homo sapiens, UniProt P10619)
T1 construct: Recombinant human cathepsin A (residues 29-480, with a C-terminal 10-His tag); 10-His (C); purchased R&D Systems 1049-SE
T1 sequence (P10619 29-326 limits assumed): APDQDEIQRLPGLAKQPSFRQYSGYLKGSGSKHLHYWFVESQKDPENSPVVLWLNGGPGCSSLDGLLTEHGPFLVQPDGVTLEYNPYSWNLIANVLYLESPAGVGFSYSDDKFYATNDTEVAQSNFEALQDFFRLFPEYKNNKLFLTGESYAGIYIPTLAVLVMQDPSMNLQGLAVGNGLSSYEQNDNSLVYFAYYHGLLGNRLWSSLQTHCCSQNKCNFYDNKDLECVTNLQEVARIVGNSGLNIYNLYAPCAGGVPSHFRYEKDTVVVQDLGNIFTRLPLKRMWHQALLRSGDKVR
T1 sequence (P10619 327-480 limits assumed): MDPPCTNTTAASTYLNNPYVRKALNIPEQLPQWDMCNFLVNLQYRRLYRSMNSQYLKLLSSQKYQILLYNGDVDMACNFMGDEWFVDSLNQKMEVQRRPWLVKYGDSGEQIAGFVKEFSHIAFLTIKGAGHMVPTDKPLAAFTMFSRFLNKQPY
Assay: Cathepsin A inhibitory activity
Assay type: biochemical
Conditions: activated recombinant human cathepsin A 833 ng/ml, Bodipy FL-labeled bradykinin substrate 2 μM, pH 5.5, room temperature
Experimental: a) Cathepsin A Inhibitory Activity
Recombinant human cathepsin A (residues 29-480, with a C-terminal 10-His tag; R&D Systems, #1049-SE) was proteolytically activated with recombinant human cathepsin L (R&D Systems, #952-CY). Briefly, cathepsin A was incubated at 10 μg/ml with cathepsin L at 1 μg/ml in activation buffer (25 mM 2-(morpholin-4-yl)-ethanesulfonic acid (MES), pH 6.0, containing 5 mM dithiothreitol (DTT)) for 15 min at 37° C. Cathepsin L activity was then stopped by the addition of the cysteine protease inhibitor E-64 (N-(trans-epoxysuccinyl)-L-leucine-4-guanidinobutylamide; Sigma-Aldrich, # E3132; dissolved in activation buffer/DMSO) to a final concentration of 10 μM.
The activated cathepsin A was diluted in assay buffer (25 mM MES, pH 5.5, containing 5 mM DTT) and mixed with the test compound (dissolved in assay buffer containing (v/v) 3% DMSO) or, in the control experiments, with the vehicle in a multiple assay plate. After incubation for 15 min at room temperature, as substrate then bradykinin carrying an N-terminal ®Bodipy FL (4,4-difluoro-5,7-dimethyl-4-bora-3a,4a-diaza-s-indacene-3-propionyl) label (JPT Peptide Technologies GmbH; dissolved in assay buffer) was added to the mixture. The final concentration of cathepsin A was 833 ng/ml and the final concentration of labeled bradykinin 2 μM. After incubation for 15 min at room temperature the reaction was stopped by the addition of stop buffer (130 mM 2-(4-(2-hydroxy-ethyl)-piperazin-1-yl)-ethanesulfonic acid, pH 7.4, containing (v/v) 0.013% ®Triton X-100, 0.13% Coating Reagent 3 (Caliper Life Sciences), 6.5% DMSO and 20 μM ebelactone B (Sigma, # E0886)).
Uncleaved substrate and product were then separated by a microfluidic capillary electrophoresis on a LabChip® 3000 Drug Discovery System (12-Sipper-Chip; Caliper Life Sciences) and quantified by determination of the respective peak areas. Substrate turnover was calculated by dividing product peak area by the sum of substrate and product peak areas, and the enzyme activity and the inhibitory effect of the test compound thus quantified. From the percentage of inhibition of cathepsin A activity observed with the test compound at several concentrations, the inhibitory concentration IC50, i.e. the concentration which effects 50% inhibition of enzyme activity was, calculated.

| SMILES | IC50 [nM] |
| --- | --- |
| Cc1ccccc1-c1nc(C(=O)N[C@@H](CC(=O)O)c2ccccc2C(F)(F)F)cs1 [Example 61, (S)-3-[(2-o-Tolyl-thiazole-4-carbonyl)-amino]-3-(2-trifluoromethyl-phenyl)-propionic acid] | 670 |
| O=C(O)C[C@H](NC(=O)c1csc(-c2ccccc2)n1)c1ccccc1C(F)(F)F [Example 62, (S)-3-[(2-Phenyl-thiazole-4-carbonyl)-amino]-3-(2-trifluoromethyl-phenyl)-propionic acid] | 2630 |
| O=C(O)C[C@H](NC(=O)c1nc(-c2ccccc2)cs1)c1cccc(Cl)c1 [Example 65, (S)-3-(3-Chloro-phenyl)-3-[(4-phenyl-thiazole-2-carbonyl)-amino]-propionic acid] | 917 |
| O=C(O)C[C@H](NC(=O)c1csc(-c2cccc(Cl)c2Cl)n1)c1ccccc1C(F)(F)F [Example 66, (S)-3-{[2-(2,3-Dichloro-phenyl)-thiazole-4-carbonyl]-amino}-3-(2-trifluoromethyl-phenyl)-propionic acid] | 619 |
| O=C(O)CC(NC(=O)c1nc(-c2ccccc2)cs1)c1ccccc1Cl (stereo not drawn) [Example 68, 3-(2-Chloro-phenyl)-3-[(4-phenyl-thiazole-2-carbonyl)-amino]-propionic acid] | 455 |
| O=C(O)C[C@H](NC(=O)c1nc(-c2ccccc2)cs1)c1ccc(Cl)cc1 [Example 69, (S)-3-(4-Chloro-phenyl)-3-[(4-phenyl-thiazole-2-carbonyl)-amino]-propionic acid] | 627 |
| Cc1ccc(-c2nc(C)c(C(=O)N[C@@H](CC(=O)O)c3ccccc3C)s2)cc1 [Example 70, (S)-3-[(4-Methyl-2-p-tolyl-thiazole-5-carbonyl)-amino]-3-o-tolyl-propionic acid] | > 10000 |
| Cc1ccccc1-c1nc(C(=O)N[C@@H](Cc2ccc(Cl)cc2)C(=O)O)cs1 [Example 72, (S)-3-(4-Chloro-phenyl)-2-[(2-o-tolyl-thiazole-4-carbonyl)-amino]-propionic acid] | 16600 |
| O=C(O)C[C@H](NC(=O)c1csc(-c2ccccc2Cl)n1)c1ccc(Cl)cc1Cl [Example 75, (S)-3-{[2-(2-Chloro-phenyl)-thiazole-4-carbonyl]-amino}-3-(2,4-dichloro-phenyl)-propionic acid] | 288 |
| O=C(O)C[C@H](NC(=O)c1csc(-c2ccccc2Cl)n1)c1ccccc1F [Example 76, (S)-3-{[2-(2-Chloro-phenyl)-thiazole-4-carbonyl]-amino}-3-(2-fluoro-phenyl)-propionic acid] | 658 |
| O=C(O)C[C@H](NC(=O)c1csc(-c2ccccc2Cl)n1)c1ccccc1C(F)(F)F [Example 77, (S)-3-{[2-(2-Chloro-phenyl)-thiazole-4-carbonyl]-amino}-3-(2-trifluoromethyl-phenyl)-propionic acid] | 712 |
| O=C(O)C[C@H](NC(=O)c1csc(-c2ccccc2Cl)n1)c1cccc(F)c1 [Example 78, (S)-3-{[2-(2-Chloro-phenyl)-thiazole-4-carbonyl]-amino}-3-(3-fluoro-phenyl)-propionic acid] | 257 |
| COc1cccc([C@H](CC(=O)O)NC(=O)c2csc(-c3ccccc3Cl)n2)c1 [Example 79, (S)-3-{[2-(2-Chloro-phenyl)-thiazole-4-carbonyl]-amino}-3-(3-methoxy-phenyl)-propionic acid] | 705 |
| O=C(N[C@@H](Cc1ccc(Cl)cc1)C(=O)O)c1csc(-c2ccccc2Cl)n1 [Example 81, (S)-3-(4-Chloro-phenyl)-2-{[2-(2-chloro-phenyl)-thiazole-4-carbonyl]-amino}-propionic acid] | > 10000 |
| O=C(O)C[C@H](NC(=O)c1csc(-c2ccccc2F)n1)c1ccccc1C(F)(F)F [Example 84, (S)-3-{[2-(2-Fluoro-phenyl)-thiazole-4-carbonyl]-amino}-3-(2-trifluoromethyl-phenyl)-propionic acid] | 1350 |
| COc1cccc([C@H](CC(=O)O)NC(=O)c2csc(-c3ccccc3F)n2)c1 [Example 85, (S)-3-{[2-(2-Fluoro-phenyl)-thiazole-4-carbonyl]-amino}-3-(3-methoxy-phenyl)-propionic acid] | 878 |
| COc1ccc([C@H](CC(=O)O)NC(=O)c2csc(-c3ccccc3F)n2)cc1 [Example 86, (S)-3-{[2-(2-Fluoro-phenyl)-thiazole-4-carbonyl]-amino}-3-(4-methoxy-phenyl)-propionic acid] | 975 |
| O=C(O)C[C@H](NC(=O)c1csc(-c2ccccc2F)n1)c1ccccc1 [Example 88, (S)-3-{[2-(2-Fluoro-phenyl)-thiazole-4-carbonyl]-amino}-3-phenyl-propionic acid] | 923 |
| O=C(O)C[C@H](NC(=O)c1csc(-c2cccc(Cl)c2)n1)c1cccc(Cl)c1Cl [Example 89, (S)-3-{[2-(3-Chloro-phenyl)-thiazole-4-carbonyl]-amino}-3-(2,3-dichloro-phenyl)-propionic acid] | 1020 |
| COc1cccc([C@H](CC(=O)O)NC(=O)c2csc(-c3cccc(Cl)c3)n2)c1OC [Example 90, (S)-3-{[2-(3-Chloro-phenyl)-thiazole-4-carbonyl]-amino}-3-(2,3-dimethoxy-phenyl)-propionic acid] | 1370 |

Continued by falling IC50, values first:

| IC50 [nM] | SMILES |
| --- | --- |
| 254 | O=C(O)C[C@H](NC(=O)c1csc(-c2cccc(Cl)c2Cl)n1)c1cccc(F)c1 [Example 67, (S)-3-{[2-(2,3-Dichloro-phenyl)-thiazole-4-carbonyl]-amino}-3-(3-fluoro-phenyl)-propionic acid] |
| 186 | O=C(O)C[C@H](NC(=O)c1csc(-c2ccccc2Cl)n1)c1ccccc1 [Example 83, (S)-3-{[2-(2-Chloro-phenyl)-thiazole-4-carbonyl]-amino}-3-phenyl-propionic acid] |
| 154 | COc1cccc([C@H](CC(=O)O)NC(=O)c2csc(-c3cccc(Cl)c3Cl)n2)c1OC [Example 64, (S)-3-{[2-(2,3-Dichloro-phenyl)-thiazole-4-carbonyl]-amino}-3-(2,3-dimethoxy-phenyl)-propionic acid] |
| 148 | O=C(O)C[C@H](NC(=O)c1csc(-c2ccccc2Cl)n1)c1ccc(F)cc1 [Example 80, (S)-3-{[2-(2-Chloro-phenyl)-thiazole-4-carbonyl]-amino}-3-(4-fluoro-phenyl)-propionic acid] |
| 126 | Cc1ccccc1[C@H](CC(=O)O)NC(=O)c1csc(-c2cccc(Cl)c2Cl)n1 [Example 71, (S)-3-{[2-(2,3-Dichloro-phenyl)-thiazole-4-carbonyl]-amino}-3-o-tolyl-propionic acid] |
| 117 | Cc1ccccc1[C@H](CC(=O)O)NC(=O)c1csc(-c2ccccc2F)n1 [Example 87, (S)-3-{[2-(2-Fluoro-phenyl)-thiazole-4-carbonyl]-amino}-3-o-tolyl-propionic acid] |
| 111 | COc1cccc([C@H](CC(=O)O)NC(=O)c2csc(-c3ccccc3Cl)n2)c1OC [Example 74, (S)-3-{[2-(2-Chloro-phenyl)-thiazole-4-carbonyl]-amino}-3-(2,3-dimethoxy-phenyl)-propionic acid] |
| 70 | O=C(O)C[C@H](NC(=O)c1csc(-c2ccccc2Cl)n1)c1cccc(Cl)c1Cl [Example 73, (S)-3-{[2-(2-Chloro-phenyl)-thiazole-4-carbonyl]-amino}-3-(2,3-dichloro-phenyl)-propionic acid] |
| 61 | Cc1ccccc1[C@H](CC(=O)O)NC(=O)c1csc(-c2ccccc2)n1 [Example 63, (S)-3-[(2-Phenyl-thiazole-4-carbonyl)-amino]-3-o-tolyl-propionic acid] |
| 30 | Cc1ccccc1[C@H](CC(=O)O)NC(=O)c1csc(-c2ccccc2Cl)n1 [Example 82, (S)-3-{[2-(2-Chloro-phenyl)-thiazole-4-carbonyl]-amino}-3-o-tolyl-propionic acid] |
